Consider 26 compounds from patent publication US5959123A, “3,4-Disubstituted azetidin-2-one derivatives useful as cysteine proteinase regulators” (Synphar Laboratories, Inc., priority 1997, dated 1999).

Assay [1] deals with cathepsin B (Rattus norvegicus, UniProt P00787). The experiment in a line: In vitro assay for cathepsin B inhibition. The assay is classed as biochemical. As to conditions: r rat cathepsin B; pH 5.1; 10 min incubation at room temperature; substrate N-CBZ-Phe-Arg-AMC (5 mM, 20 μl). The protocol:
The compounds of formula I were tested for inhibition of cathepsin B using the known method (A. J. Barret et al., Biochem. J. 1982, 201, 189-198). To a 170 μl of enzyme-buffer mixture (enzyme: r rat cathepsin B, diluted to give approximate 10 F units/min, buffer: 56 mM sodium acetate, 1.124 mM EDTA, 10 mM DTT, pH 5.1) a 10 μL of inhibitor (dissolved in DMSO) was added. After 10 min of incubation at room temperature, a 20 μl of 5 mM substrate (N-CBZ-Phe-Arg-AMC, dissolved in DMSO) was added to initiate reaction. Reading is followed up for 10 min at the fluoroscan reader (excitation at 380 nm emission at 460 nm).
(§1) A plot of percentage of inhibition vs inhibitor concentration is obtained, and IC50 is determined using a linear regression calculation (concentration of inhibitor which will give 50% inhibition).

The target in assay [2] is cathepsin L (Rattus norvegicus, UniProt P07154). The experiment in a line: In vitro assay for cathepsin L inhibition. The format is biochemical. To be noted: r rat cathepsin L; pH 5.0; 10 min incubation at room temperature; substrate N-CBZ-Phe-Arg-AMC (1 mM, 20 μl). The protocol:
To a 170 μl of enzyme-buffer mixture (enzyme: r rat cathepsin L, diluted to give approximate 15 F units/min, buffer: 58.8 mM sodium citrate, 1.18 mM EDTA, 235 mM sodium chloride, 5 mM DTT, pH 5.0) a 10 μL of inhibitor (dissolved in DMSO) was added. After 10 min of incubation at room temperature, a 20 μl of 1 mM substrate (N-CBZ-Phe-Arg-AMC, dissolved in DMSO) was added to initiate reaction. Reading is followed up for 10 min at the fluoroscan reader (excitation at 380 nm emission at 460 nm).
as §1

pIC50: −log10 of the molar value. Where only a bound is given, the exact number is not on record here.

Chain of cathepsin B (P00787 80-333 limits assumed): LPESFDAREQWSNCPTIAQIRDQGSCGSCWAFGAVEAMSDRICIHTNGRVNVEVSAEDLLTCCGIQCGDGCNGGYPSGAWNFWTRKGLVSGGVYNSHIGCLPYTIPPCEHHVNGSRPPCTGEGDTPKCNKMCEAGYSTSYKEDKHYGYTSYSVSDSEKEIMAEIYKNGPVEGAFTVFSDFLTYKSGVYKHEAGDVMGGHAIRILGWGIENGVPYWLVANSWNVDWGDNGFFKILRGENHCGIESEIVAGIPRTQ
Chain of cathepsin L (P07154 114-334): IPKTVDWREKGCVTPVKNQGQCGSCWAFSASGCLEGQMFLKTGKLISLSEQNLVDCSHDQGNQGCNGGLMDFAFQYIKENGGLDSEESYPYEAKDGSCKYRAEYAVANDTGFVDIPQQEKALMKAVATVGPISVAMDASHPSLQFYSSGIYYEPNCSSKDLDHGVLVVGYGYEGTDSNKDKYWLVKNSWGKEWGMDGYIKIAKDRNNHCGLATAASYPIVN

One may read the pIC50 as −log10 of the IC50, conventionally taken in molar units. Regarding `CC(=O)O[C@@H]1NC(=O)[C@H]1NC(=O)[C@H](CCCN=C(N)N[N+](=O)[O-])NC(=O)CCc1ccccc1` [Example 24, (3S,4S)-3-{N^α -(3-phenylpropionyl)-N-nitro-L-arginyl}-amino-4-acetoxy-azetidin-2-one], the pIC50 in assay [1] was 4.50; in assay [2] it was 7.77.
The matching figures for `CC(=O)O[C@@H]1NC(=O)[C@H]1NC(=O)[C@H](CCc1ccccc1)NC(=O)OCc1ccccc1` [Example 4, (3S,4S)-3-(N-benzyloxycarbonyl-L-homophenylalanyl)-amino-4-acetoxy-azetidin-2-one]: less than 4.30 and 4.94.
Regarding `CC(C)(C)[C@H](NC(=O)CCc1ccccc1)C(=O)N[C@@H]1C(=O)N[C@H]1Oc1ccccc1` [Example 29, (3S, 4S)-3-[2S-2-(3-phenylpropionoyl)amino-2-t-butyl-acetamido]-4-phenoxy-azetidin-2-one], the pIC50 in assay [1] and in assay [2] was less than 4.30 each time.
Regarding `CC(C)(C)C[C@H](NC(=O)CCc1ccccc1)C(=O)N[C@@H]1C(=O)N[C@H]1Oc1ccccc1` [Example 28, (3S, 4S)-3-[2S-2-(3-phenylpropionoyl)amino-2-t-butylmethyl-acetamido]-4-phenoxy-azetidin-2-one], the pIC50 in assay [1] was 4.35; in assay [2] it was 4.94.
As for `CC(=O)O[C@@H]1NC(=O)[C@H]1NC(=O)C1Cc2ccccc2N1C(=O)OCc1ccccc1` (stereo partly drawn) [Example 1, (3S,4S)-3-(1 -N-benzyloxycarbonyl-2-indolinecarbonyl)-amino-4-acetoxy-azetidin-2-one], the pIC50 in assay [1] was less than 4.30; in assay [2], 4.57.
Regarding `CC(OC(C)(C)C)[C@H](NC(=O)OCc1ccccc1)C(=O)N[C@@H]1C(=O)N[C@@H]1Oc1ccccc1` (stereo partly drawn) [Example 26, (3S, 4R)-3-[2S-2-benzyloxycarbonylamino-2-(1-t-butyloxyethyl)-acetamido]-4-phenoxy-azetidin-2-one], the values for the pIC50 in assay [1] and in assay [2] were less than 4.30 and 4.97, respectively.
In the case of `CC(=O)O[C@@H]1NC(=O)[C@H]1NC(=O)[C@H](NC(=O)OCc1ccccc1)c1ccccc1` [Example 2, (3S,4S)-3-(N-benzyloxycarbonyl-D-phenylglycyl)-amino-4-acetoxy-azetidin-2-one], the pIC50 in assay [1] and in assay [2] was less than 4.30 throughout.
Consider `CC(=O)O[C@@H]1NC(=O)[C@H]1NC(=O)[C@H](Cc1ccc2ccccc2c1)NS(=O)(=O)/C=C/c1ccccc1` [Example 20, (3S,4S)-3-{N-(trans-2-phenyl-eth-1-enesulfonyl)-β-(2-naphthyl)-L-alanyl}-amino-4-acetoxy-azetidin-2-one], for which the pIC50 in assay [1] is 6.40; in assay [2] it was 7.10.
`CC(C)(C)OC[C@H](NC(=O)OCc1ccccc1)C(=O)N[C@@H]1C(=O)N[C@@H]1Oc1ccccc1` [Example 25, (3S,4R)-3-(2S-2-benzyloxycarbonylamino-2-t-butyloxymethyl-acetamido)-4-phenoxy-azetidin-2-one]: the negative-log IC50 (pIC50) was 4.96 in assay [1] and 5.66 in assay [2].
The matching figures for `O=C(CCc1ccccc1)N[C@@H](Cc1ccc2ccccc2c1)C(=O)N[C@@H]1C(=O)NC1OC1CCCCC1` (stereo partly drawn) [Example 19, (3S,4SR)-3{N-(3-phenylpropionoyl)-β-(2-naphthyl)-L-alanyl}-amino-4-cyclohexyloxy-azetidin-2-one]: 5.71 and 6.41.
The matching figures for `Cc1cccc(O[C@H]2NC(=O)[C@H]2NC(=O)[C@H](Cc2ccc3ccccc3c2)NC(=O)OCc2ccccc2)c1` [Example 12B, (3S,4R)-3-{N-benzyloxycarbonyl-β-(2-naphthyl)-L-alanyl}-amino-4-(3-methylphenoxy)-azetidin-2-one]: 7.10 and 9.40.
As to `Cc1cccc(O[C@@H]2NC(=O)[C@H]2NC(=O)[C@H](Cc2ccc3ccccc3c2)NC(=O)OCc2ccccc2)c1` [Example 12A, (3S,4S)-3{N-benzyloxycarbonyl-β-(2-naphthyl)-L-alanyl}-amino-4-(3-methylphenoxy)-azetidin-2-one], the pIC50 is 6.42 in assay [1] and 8.52 in assay [2].
`O=C(CCc1ccccc1)N[C@@H](Cc1ccc2c(c1)OCCO2)C(=O)N[C@@H]1C(=O)N[C@H]1Oc1ccccc1` [Example 31]: the values for the pIC50 in assay [1] and in assay [2] were 5.01 and 7.10, respectively.
Regarding `COc1ccc(C[C@H](NC(=O)CCc2ccccc2)C(=O)N[C@@H]2C(=O)N[C@H]2Oc2ccccc2)cc1OC` [Example 30, (3S, 4s)-3-[2S-2-(3-phenylpropionoyl)amino-2-(3,4-dimethoxyphenyl)methyl-acetamido]-4-phenoxy-azetidin-2-one], the figures for the pIC50 in assay [1] and in assay [2] were 4.32 and 5.80, respectively.
As to `CC(=O)O[C@@H]1NC(=O)[C@H]1NC(=O)[C@H](Cc1ccccn1)NC(=O)OCc1ccccc1` [Example 6, (3S,4S)-3-(N-benzyloxycarbonyl-β-(2-pyridyl)-L-alanyl)-amino-4-acetoxy-azetidin-2-one], the values for the pIC50 in assay [1] and in assay [2] were less than 4.30 and 4.92, respectively.
Regarding `COc1ccc(C[C@H](NC(=O)OCc2ccccc2)C(=O)N[C@@H]2C(=O)N[C@H]2OC(C)=O)cc1` [Example 10, (3S,4S)-3-{N-benzyloxycarbonyl-β-(4-methoxyphenyl)-L-alanyl}-amino-4-acetoxy-azetidin-2-one], the pIC50 in assay [1] is 5.12; in assay [2], 7.24.
Regarding `O=C(N[C@@H](Cc1ccc2ccccc2c1)C(=O)N[C@@H]1C(=O)N[C@H]1Oc1ccc2ccccc2c1)OCc1ccccc1` [Example 13A, (3S,4S)-3-{N-benzyloxycarbonyl-β-(2-naphthyl)-L-alanyl}amino-4-(2-naphthoxy)-azetidin-2-one], the pIC50 is 5.74 in assay [1] and 8.54 in assay [2].
The matching figures for `N[C@@H](Cc1ccc(OC2NC(=O)[C@H]2NC(=O)[C@H](Cc2ccc3ccccc3c2)NC(=O)NCc2ccccc2)cc1)C(=O)O` (stereo partly drawn) [Example 22, (3S,4SR)-3-{N-(benzylaminocarbonyl)-β-(2-naphthyl)-L-alanyl}-amino-4-{4-(2S-2-amino-2-carboxy-ethyl)-phenoxy}-azetidin-2-one]: 5.08 and 7.89.
The matching figures for `CC(=O)O[C@@H]1NC(=O)[C@H]1NC(=O)[C@H](Cc1ccc2ccccc2c1)NC(=O)OCc1ccccc1` [Example 8, (3S,4S)-3-(N-benzyloxycarbonyl-β-(2-naphthyl)-L-alanyl)-amino-4-acetoxy-azetidin-2-one]: 4.78 and 7.87.
Turning to `O=C(N[C@@H](Cc1ccc2ccccc2c1)C(=O)N[C@@H]1C(=O)N[C@@H]1Oc1ccc2ccccc2c1)OCc1ccccc1` [Example 13B, (3S,4R)-3-{N-benzyloxycarbonyl-β-(2-naphthyl)-L-alanyl}-amino-4-(2-naphthoxy)-azetidin-2-one], the pIC50 in assay [1] was 7.15; in assay [2], 9.96.
Regarding `O=C(CCc1ccccc1)N[C@@H](Cc1ccc2ccccc2c1)C(=O)N[C@@H]1C(=O)NC1OCc1ccccc1` (stereo partly drawn) [Example 18, (3S,4SR)-3{N-(3-phenylpropionoyl)-β-(2-naphthyl)-L-alanyl}-amino-4-benzyloxy-azetidin-2-one], the results for the pIC50 in assay [1] and in assay [2] were 5.72 and 7.12, respectively.
With `O=C(N[C@@H](Cc1ccc2ccccc2c1)C(=O)N[C@@H]1C(=O)N[C@@H]1Oc1cccc(N2CCOCC2)c1)OCc1ccccc1` [Example 14B, (3S,4R)-3-{N-benzyloxycarbonyl-β-(2-naphthyl)-L-alanyl}-amino-4-{3-(morpholin-4-yl)-phenoxy}-azetidin-2-one], the pIC50 in assay [1] was 6.47; in assay [2], 9.30.
`CC(=O)O[C@@H]1NC(=O)[C@H]1NC(=O)[C@H](Cc1ccc2ccccc2c1)NC(=O)NCc1ccccc1` [Example 21, (3S,4S)-3-{N-(benzylaminocarbonyl)-β-(2-naphthyl)-L-alanyl}-amino-4-acetoxy-azetidin-2-one]: the figures for the pIC50 in assay [1] and in assay [2] were 5.66 and 8.00, respectively.
As to `CC(=O)O[C@@H]1NC(=O)[C@H]1NC(=O)[C@H](Cc1cccc(F)c1)NC(=O)OCc1ccccc1` [Example 9, (3S,4S)-3-{N-benzyloxycarbonyl-β-(3-fluorophenyl)-L-alanyl}-amino-4-acetoxy-azetidin-2-one], the results for the pIC50 in assay [1] and in assay [2] were 4.72 and 6.47, respectively.
The matching figures for `CC(=O)O[C@@H]1NC(=O)[C@H]1NC(=O)[C@H](Cc1cccnc1)NC(=O)OCc1ccccc1` [Example 5, (3S,4S)-3-{N-benzyloxycarbonyl-β-(3-pyridyl)-L-alanyl}-amino-4-acetoxy-azetidin-2-one]: less than 4.30 and 5.08.
As for `O=C(N[C@@H](Cc1ccc2ccccc2c1)C(=O)N[C@@H]1C(=O)N[C@H]1Oc1ccccc1)OCc1ccccc1` [Example 11, (3S,4S)-3-{N-benzyloxycarbonyl-β-(2-naphthyl)-L-alanyl}-amino-4-phenoxy-azetidin-2-one], the negative logarithm of the IC50 (pIC50) in assay [1] was 6.05; in assay [2] it was 7.82.
